We go through 1 substance from US20230405084A1, “USE OF PHOSPHATIDYLSERINE IN PREPARATION OF DRUG FOR TREATING INFLAMMATORY BOWEL DISEASE” (JIANGSU TARGET BIOMEDICAL RESEARCH INSTITUTE CO., LTD., priority 2020, published 2023).

In experiment [1] the target is T1, Annexin A5-EGFP (wild-type Annexin A5 fused to EGFP) (Homo sapiens, UniProt P08758).
T1 construct: E. coli BL21(DE3), pET-28a/kanamycin vector
T1 sequence (P08758 1-320): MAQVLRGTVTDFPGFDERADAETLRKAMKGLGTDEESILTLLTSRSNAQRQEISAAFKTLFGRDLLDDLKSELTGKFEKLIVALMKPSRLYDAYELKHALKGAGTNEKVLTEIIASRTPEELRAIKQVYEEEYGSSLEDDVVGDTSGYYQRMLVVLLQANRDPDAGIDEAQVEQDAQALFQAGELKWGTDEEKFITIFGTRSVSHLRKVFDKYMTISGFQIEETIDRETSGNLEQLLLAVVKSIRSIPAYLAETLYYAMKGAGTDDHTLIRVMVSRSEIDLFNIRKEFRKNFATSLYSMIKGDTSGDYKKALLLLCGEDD
As to the kind of experiment: MST analysis of protein binding ability to PS (Annexin A5-EGFP). To be noted: fitted binding curve (Fnorm), in the presence of Ca^2+, protein fixed, gradient dilution of PS, 5 min at room temperature. The method, then: (§1) 3.2.9 MST Analysis of Protein Binding Ability to PS
(§2) MST is based on the phenomenon of thermophoresis of biomolecules in capillaries, resulting in changes in the properties of biomolecules, which are manifested in changes in the fluorescence distribution of the reaction system, and the fluorescence changes reflect the affinity of biomolecular interactions.
(§3) The MST experiment was conducted as follows.
(§4) (1) Non-fluorescent ligand preparation: 20 μL of the highest concentration unmarked PS molecules was prepared. 16 PCR tubes were labeled. 10 μL of buffer was added to each of 15 PCR tubes. 10 μL from PCR tube #1 was transferred to PCR tube #2 and mixed thoroughly. 10 μL from PCR tube #2 was transferred to PCR tube #3 and mixed thoroughly. Repeat this step in all sample tubes. Finally, 10 μL from PCR tube #16 was taken out and discard.
(§5) (2) Fluorescent ligand preparation: The fluorescent ligand was diluted to 2 times the concentration to be tested, and 10 μL was added respectively to PCR tubes 1-16 in sequence using a clean pipette tip, starting from the low concentration PCR tube to the highest concentration PCR tube.
(§6) (3) Incubation: The reaction solutions of the above tubes were mixed thoroughly and incubated for 5 min at room temperature away from light. […]

Experiment [2] concerns the target T2, Annexin A5m-EGFP (Annexin A5 variant Annexin A5m, R25A/K29S/R63S/D68A/E72Q/D144N/E228A/D303N, fused to EGFP) (Homo sapiens, UniProt P08758, D144N/D303N/D68A/E228A/E72Q/K29S/R25A/R63S).
T2 construct: pET-28a, E. coli BL21(DE3)
T2 sequence (P08758 1-320 R25A/K29S/R63S/D68A/E72Q/D144N/E228A/D303N): T1 sequence (P08758 1-320) with R25A, K29S, R63S, D68A, E72Q, D144N, E228A, D303N
As to the kind of experiment: MST analysis of protein binding ability to PS (Annexin A5m-EGFP). Conditions: in the presence of Ca^2+, failed to be fitted into a binding curve, protein fixed, gradient dilution of PS, 5 min at room temperature. The method, then: as §1, §2, §3, §4, §5, §6

Where a chain is given by its changes, count along the chain named.

With phosphatidylserine [PS], in experiment [1], the equilibrium dissociation constant (Kd) worked out at 13.8 µM. Also, the Kd value entry in experiment [2] is recorded as “no Kd value”.
